The values below come from patent publication US6107273A, “Tumor necrosis factor inhibitors” (Thomas Jefferson University, priority 1995, dated 2000).

Where “and” joins values, the source holds several entries; their conditions need not be identical. Equal entries are not always repeated. Square brackets hold non-standard residues; d marks the D form. Ends that are not written are not given here. Pen = CC(C)(S)[C@H](N)C(=O)O; Aib = CC(C)(N)C(=O)O

The experiment relates to WEHI 164 cells. Kind of experiment: In vitro cytotoxicity assay: protection of WEHI 164 cells from TNF-α cytotoxicity (AlamarBlue). The class given is cell-based, mouse. The method, then: In vitro cytotoxicity assay Cell line
The murine fibrosarcoma cell line L929 is widely used for testing TNF-α cytotoxicity in vitro. In addition, other cell lines are available that are more sensitive, such as the WEHI 164, a mouse myosarcoma cell line. Both cell lines were initially screened for use in the following experiments and WEHI 164 cells were chosen for their higher sensitivity.
Cells are maintained in serum free medium Ultraculture (Biowhittaker) with the addition of 2 mM Glutamine. The assay is carried out in the same serum free medium.
In the cytotoxicity assay, a susceptible cell line (WEHI 164) is incubated in medium containing serial dilutions of TNF-α for a set time and the consequent cytotoxic activity, manifested as inhibition of cell growth and/or cell death, is evaluated by spectrophotometer measurements of vital dye uptake.
Peptide stock solutions are made in HBSS at the concentration of 1 mg/ml, sterilized by passage through a 0.20 μm×13 mm cellulose acetate filters (Corning). The solutions were used for no longer than 10 days. All the other dilutions needed for the test were prepared just before the assay in sterile manner using the medium Ultraculture.
WEHI 164 cells are taken from logarithmic growth and seeded in 96 well microtiter plates at the density of 2500 cells/well. The assay is performed 48 hours later, at a cell density of approximately 3000 cells/well. Cells are pre-incubated with serial dilutions of peptides for 30 minutes, then TNF-α is added to the wells and incubated for 16 hours at 37° C. Samples are repeated in triplicate.
Control wells for non treated cells contain medium only. A concentration curve of TNF-α is performed for every assay at concentrations ranging between 200 and 1 ng/ml. A control for full protection from TNF-α cytotoxicity is carried out by pre-incubating TNF-α with A2 antibody (Centocor, Malvern Pa.) for 30 minutes then adding it to the cells.
After 16 hour incubation, the vital dye AlamarBlue (Alamar Biosciences) is added in the amount equal to 10% final volume. The plates are returned to the incubator for 6-10 hours.
Absorbance is evaluated at 570 nm, subtracting the background absorbance measured at 595 nm in a BioRad microtiter plate reader.
Values are expressed as a percentage of cell survival, where the control samples (containing medium only) are referred to as 100%.

Where [1] appears, read: 25 μg/ml peptide, TNF 25 ng/ml, 16 h.
Setting [2] is: 50 μg/ml peptide, TNF 25 ng/ml, 16 h.
The mark [3] stands for this setting: 100 μg/ml peptide, TNF 25 ng/ml, 16 h.
Where [4] appears, read: 2.5 μg/ml peptide, TNF 5 ng/ml, 16 h.
[5] abbreviates: 25 μg/ml peptide, TNF 5 ng/ml, 16 h.
Setting [6] is: 50 μg/ml peptide, TNF 25 pg/ml, 16 h.
Setting [7] is: 100 μg/ml peptide, TNF 25 pg/ml, 16 h.

With “CARDNQAC (cysteine pairing not given here) [Peptide 509]”, the “% cell survival” value runs as follows: (2.5 μg/ml peptide, TNF 25 ng/ml, 16 h) 21 ± 5%; under setting [1], 28.4%.

In the case of “CEGAEC (cysteine pairing not given here) [Peptide 561]”, the “% cell survival” value was 92 ± 20% under setting [2] and 90 ± 10% under setting [3]. In the case of “CIAVSYQTKC (cysteine pairing not given here) [Peptide 558]”, the “% cell survival” value runs as follows: under setting [2], 24 ± 8%; under setting [3], 26 ± 7%. Regarding “CPETPEGAEAKPC (cysteine pairing not given here) [Peptide 506]”, the “% cell survival” value runs as follows: under setting [4], 68%; under setting [5], 88.1%.

Take “CPQAEGQLC (cysteine pairing not given here) [Peptide 510]”: the “% cell survival” value by setting is: under setting [6], 59.3 ± 1%; under setting [7], 60.4 ± 3%.

For the substance “CPRETPEGAEAKPC (cysteine pairing not given here) [Peptide 505]”, the “% cell survival” value (100 μg/ml peptide, 30 min pre-incubation, then TNF-α 16 h, TNF concentration not printed (table 1)) is 62.7 ± 4% and 32.5 ± 3%. As for “CRIAVSYQTKVC (cysteine pairing not given here) [Peptide 557]”, the “% cell survival” value is on record as 70 ± 3% under setting [2] and 65 ± 4% under setting [3]. For “CRRANA[dC] (cysteine pairing not given here) [Peptide 512]”, the “% cell survival” value by setting is: under setting [6], 70.8 ± 6%; under setting [7], 65.6 ± 8%. “CSYQTKC (cysteine pairing not given here) [Peptide 522]”: the “% cell survival” value is on record as 81% under setting [4] and 111% under setting [5]. With “CSYQTKVC (cysteine pairing not given here) [Peptide 521]”, the “% cell survival” value reads like this: under setting [6], 56.51 ± 3%; under setting [7], 65.26 ± 4%. “Pen-Thr-Pro-Glu-Gly-Ala-Glu-Ala-Pen ([Pen]TPEGAEA[Pen]; cysteine pairing not given here) [Peptide 562]”: the “% cell survival” value is recorded as 25.2 ± 7% under setting [6] and 33.1 ± 7% under setting [7]. As to “[Pen]E[Aib]E[Pen] (cysteine pairing not given here) [Peptide 556]”, the “% cell survival” value is recorded as 69 ± 18% under setting [1] and 71 ± 14% under setting [2].
